# Assay results: PMC8625065 (Molecules, 2021)
# Counter-ions that a name gives are not always drawn.
# Experiments:
# [1] = system: A549 (lung adenocarcinoma); assay: MTT proliferation assay, 72 h; assay type: cell-based; settings: Homo sapiens, A549 cells
# Description: (§1) The cell lines HeLa (cervical carcinoma), SW620 (colorectal adenocarcinoma, metastatic), A549 (lung adenocarcinoma), HepG2 (hepatocellular carcinoma) and HFF (human foreskin fibroblasts) were cultured as monolayers and maintained in Dulbecco’s modified Eagle medium (DMEM), supplemented with 10% fetal bovine serum (FBS), 2mM L-glutamine, 100 U/mL penicillin and 100 μg/mL streptomycin in a humidified atmosphere with 5% CO2 at 37 °C.
# (§2) Cells were seeded onto 96-well microtiter plates at a seeding density of 3000 cells/well for carcinoma cell lines, and 5000 cells/well for normal human fibroblasts. The next day, cells were treated with test agents at five different concentrations (0.01–100 µM) and further incubated for 72 h. […] Following 72 h incubation, the MTT assay was performed and measured absorbances were transformed into percentage of cell growth as described previously. Results were obtained from three independent experiments.
# [2] = system: HepG2 (hepatocellular carcinoma); assay: MTT proliferation assay, 72 h; assay type: cell-based, human; settings: for IC50: Homo sapiens, HepG2 cells, MTT, 72 h
# Description: as §1, §2
# [3] = system: HeLa (cervical carcinoma); assay: MTT proliferation assay, 72 h; assay type: cell-based, human; settings: Homo sapiens; HeLa cells, MTT, 72 h
# Description: as §1, §2
# [4] = system: HFF (human foreskin fibroblasts); assay: MTT proliferation assay, 72 h, non-tumor cells; assay type: cell-based; set-up: selectivity index (SI): reference not given here; settings: for IC50: Homo sapiens, Fibroblast, non-tumor HFF fibroblasts, MTT, 72 h; for selectivity index (SI): normal HFF fibroblasts versus tumor cells
# Description: as §1, §2
# [5] = system: poly A-poly U (RNA, polymer) A/U; assay: fluorescence titration, Scatchard; settings: Na+ (sodium cacodylate, I = 0.05 M); sodium cacodylate buffer pH 7.0, 25 °C; polynucleotide concentration as phosphates; per base
# [6] = system: poly (dAdT)2 (DNA, polymer) AT; assay: fluorescence titration, Scatchard; settings: Na+ (sodium cacodylate, I = 0.05 M); sodium cacodylate buffer pH 7.0, 25 °C; polynucleotide concentration as phosphates; per base
# [7] = system: poly (dAdT)2 (DNA, polymer) AT; assay: UV thermal melting, 260 nm; settings: Na+ (sodium cacodylate, I = 0.05 M); sodium cacodylate buffer pH 7
# [8] = system: SW620 (colorectal adenocarcinoma, metastatic); assay: MTT proliferation assay, 72 h; assay type: cell-based, human; settings: Homo sapiens, SW-620; SW620 cells, MTT, 72 h
# Description: as §1, §2
# [9] = system: ctDNA; assay: Thermal melting experiment; assay type: binding, calf; settings: r = [compound]/[polynucleotide] = 0.3, pH 7.0, error ±0.5 °C
# Description: (§3) Compound solutions were used for measurements in aqueous buffer (pH = 7, sodium cacodylate buffer, I = 0.05 mol dm^−3). Polynucleotides were purchased as noted: poly A-poly U, poly (dAdT)2 and calf thymus (ct)DNA (Sigma-Aldrich). Polynucleotides were dissolved in Na-cacodylate buffer, I = 0.05 mol dm^−3, pH = 7. The calf thymus ctDNA was additionally sonicated and filtered through a […]. Polynucleotide concentration was determined spectroscopically as the concentration of phosphates. UV–Vis spectra were recorded on a Varian Cary 100 Bio spectrophotometer using 1cm path quartz cuvettes. Calibration experiments were performed at 25 °C and pH = 7 (I = 0.05 mol dm^−3, sodium cacodylate buffer). Thermal melting curves for DNA and their complexes with studied compounds were determined as previously described by following the absorption change at 260 nm as a function of temperature. The absorbance of the ligands was subtracted from every curve and the absorbance scale was normalized. Tm values are the midpoints of the transition curves determined from the maximum of the first derivative and checked graphically by the tangent method. The ΔTm values were calculated by subtracting the Tm of the free nucleic acid from the Tm of the complex. Every ΔTm value reported here was the average of at least two measurements. The error in ΔTm is ±0.5 °C.
# [10] = biological target: p(dAdT)2 (AT-DNA); assay: Fluorimetric titration, Scatchard processing; assay type: binding; settings: p(dAdT)2, pH 7.0, sodium cacodylate buffer, I = 0.05 mol dm^-3
# Description: (§4) Compound solutions were used for measurements in aqueous buffer (pH = 7, sodium cacodylate buffer, I = 0.05 mol dm^−3). Polynucleotides were purchased as noted: poly A-poly U, poly (dAdT)2 and calf thymus (ct)DNA (Sigma-Aldrich). Polynucleotides were dissolved in Na-cacodylate buffer, I = 0.05 mol dm^−3, pH = 7. The calf thymus ctDNA was additionally sonicated and filtered through a […]. Polynucleotide concentration was determined spectroscopically as the concentration of phosphates.
# (§5) Fluorescence spectra were recorded on a Varian Cary Eclipse spectrophotometer at 25 °C using appropriate 1cm path quartz cuvettes. Fluorometric experiments were performed at pH = 7 (I = 0.05 mol dm^−3, sodium cacodylate buffer) by adding portions of polynucleotide solution into the solution of the studied compound. In fluorometric experiments, an excitation wavelength of λexc ≥ 300 nm was used to avoid the inner filter effect caused due to increasing absorbance of the polynucleotide. Emissions were determined in the range λem = 300–600 nm. Values for Ks obtained by processing titration data using the Scatchard equation [40], in most titrations have satisfactory correlation coefficients (≥0.98).
# [11] = system: ctDNA (calf thymus DNA); assay: Fluorimetric titration, Scatchard processing; assay type: binding; settings: pH 7.0, sodium cacodylate buffer, I = 0.05 mol dm^-3
# Description: as §4, §5
# [12] = biological target: poly A-poly U (AU-RNA); assay: Fluorimetric titration, Scatchard processing; assay type: binding; settings: pH 7.0, sodium cacodylate buffer, I = 0.05 mol dm^-3
# Description: as §4, §5
# [13] = system: poly A-poly U; assay: Thermal melting experiment; assay type: binding; settings: r = 0.3, pH 7.0, error ±0.5 °C
# Description: as §3
# [14] = system: poly(dAdT)2; assay: Thermal melting experiment; assay type: binding; settings: poly(dAdT)2, r = 0.3, pH 7.0; error ±0.5 °C
# Description: as §3
# [15] = system: poly A-poly U (RNA, polymer) A/U; assay: UV thermal melting, 260 nm; settings: Na+ (sodium cacodylate, I = 0.05 M); sodium cacodylate buffer pH 7
# [16] = system: poly A-poly U (RNA, polymer) A/U; assay: CD titration; settings: Na+ (sodium cacodylate, I = 0.05 M); sodium cacodylate buffer pH 7, 25 °C; weak negative ICD near 300 nm, intercalation
SMILES,IC50 [1] [µM],IC50 [2] [µM],IC50 [3] [µM],logKs [5],logKs [6],binding [7],melting point [°C],IC50 [8] [µM],logKs [10],logKs [12],binding [15],binding [16],IC50 [4] [µM],selectivity index (SI) [4],ΔTm [9] [°C],logKs [11],ΔTm [13] [°C],ΔTm [14] [°C],selectivity index (SI) on HepG2 ([2]; HFF versus HepG2 cells)
c1cc(C2=NCCN2)c2ccn(Cc3cn(-c4ccc(C5=NCCN5)cc4)nn3)c2c1,,,,4.2,6.6,yes,,,,,,,,,,,,,
"Cl.Cl.c1cc(C2=NCCN2)ccc1NCc1cn(-c2ccc(C3=NCCN3)cc2)nn1 [Compound 4, 1-(4-(4,5-Dihydro-1H-imidazol-2-yl)-phenyl)-4-((4-(4,5-dihydro-1H-imidazol-2-yl)phenyl)aminomethyl)-1H-1,2,3-triazole dihydrochloride]",46.7,48.9,41.2,,,,> 250,61.9,,,,,,2,,,,,
"c1cc(C2=NCCN2)c2ccn(Cc3cn(-c4ccc(C5=NCCN5)cc4)nn3)c2c1 [Compound 6, 1-((1-(4-(Dihydro-1H-imidazol-2-yl)phenyl)-1H-1,2,3-triazol-4-yl)methyl)-4-(dihydro-1H-imidazol-2-yl)-1H-indole dihydrochloride]",49.9,2.37,13.5,,,,,18,6.6,4.2,,,< 0.01,,2,5.0,0,6,
"Cl.Cl.c1cc(C2=NCCN2)ccc1OCc1cn(-c2ccc(C3=NCCN3)cc2)nn1 [Compound 5, 1-(4-(4,5-Dihydro-1H-imidazol-2-yl)-phenyl]-4-((4-(4,5-dihydro-1H-imidazol-2-yl)phenyloxy)methyl]-1H-1,2,3-triazole dihydrochloride]",15.7,0.64,0.8,7.0,6.5,yes,> 250,0.22,6.5,7.0,yes,,< 0.01,,5,5.7,2,14,
"Cl.c1cnc2c(NCc3cn(-c4ccc(C5=NCCN5)cc4)nn3)cccc2c1 [Compound 8, 8-(((1-(4-(4,5-Dihydro-1H-imidazol-2-yl)phenyl)-1H-1,2,3-triazol-4-yl)methyl)amino)-quinoline hydrochloride]",29.1,4.84,23.8,,5.5,,192 to 196,35.6,5.5,,,,11.7,2,0,,0,1,
"Cl.c1cnc2c(OCc3cn(-c4ccc(C5=NCCN5)cc4)nn3)cccc2c1 [Compound 9, 8-((1-(4-(4,5-Dihydro-1H-imidazol-2-yl)phenyl)-1H-1,2,3-triazol-4-yl)methyloxy)-quinoline hydrochloride]",25.2,9.07,10.3,5.1,5.8,yes,229 to 232,2.69,5.8,5.1,,,< 0.01,,1,5.3,0,3,

# Further lines, with some results ahead:
IC50 [1] [µM],IC50 [2] [µM],IC50 [3] [µM],logKs [5],logKs [6],binding [7],melting point [°C],IC50 [8] [µM],logKs [10],logKs [12],binding [15],binding [16],SMILES,IC50 [4] [µM],selectivity index (SI) [4],ΔTm [9] [°C],logKs [11],ΔTm [13] [°C],ΔTm [14] [°C],selectivity index (SI) on HepG2 ([2]; HFF versus HepG2 cells)
6.52,> 100,25.6,,,,,,,,,,"N/C(=N\O)c1ccc(-n2cc(CNc3cccc4cccnc34)nn2)cc1 [Compound 18, 8-(((1-(4-((Z)-N′-Hydroxycarbamimidoyl)phenyl)-1H-1,2,3-triazol-4-yl)methyl)amino)quinoline]",9.81,,,,,,
> 100,> 100,> 100,,,,218 to 221,> 100,,,,,"N/C(=N\O)c1ccc(OCc2cn(-c3ccc(/C(N)=N/O)cc3)nn2)cc1 [Compound 13, (Z)-N′-Hydroxy-4-(4-((4-((Z)-N′-hydroxycarbamimidoyl)phenoxy)methyl)-1H-1,2,3-triazol-1-yl)benzimidamide]",,,,,,,
> 100,> 100,> 100,,,,229 to 232,> 100,,,,,"N/C(=N\O)c1ccc(-n2cc(Cn3ccc4c(/C(N)=N/O)cccc43)nn2)cc1 [Compound 15, (Z)-N′-hydroxy-1-((1-(4-((Z)-N′-hydroxycarbamimidoyl)phenyl)-1H-1,2,3-triazol-4-yl)methyl)-1H-indole-4-carboximidamide]",,,,,,,
7.86,3.55,1.9,,6.7,yes,,1.75,6.7,,,yes,"Cl.O=c1cc(OCc2cn(-c3ccc(C4=NCCN4)cc3)nn2)c2ccccc2o1 [Compound 10, 4-((1-(4-(4,5-Dihydro-1H-imidazol-2-yl)phenyl)-1H-1,2,3-triazol-4-yl)methyloxy)-coumarin hydrochloride]",< 0.01,,0,,0,2,
4.49,0.28,2.13,4.9,4.9,yes,> 250,4.77,4.9,4.9,,,"Cl.O=c1ccc2ccc(OCc3cn(-c4ccc(C5=NCCN5)cc4)nn3)cc2o1 [Compound 11, 7-((1-(4-(4,5-Dihydro-1H-imidazol-2-yl)phenyl)-1H-1,2,3-triazol-4-yl)methyloxy)-coumarin hydrochloride]",3.14,,0,,0,2,11
